Assay results published in patent US20240327463A1, “ANTIBACTERIAL PRODUCTS” (priority 2017, published 2024).
Converted amounts (≈) assume the structure as drawn. Bridge positions count the residues as written; N and C are the ends. Square brackets hold non-standard residues; d marks the D form. Peptide text beside a SMILES is read from it. ξ: configuration not given here. dNMeF = CN[C@H](Cc1ccccc1)C(=O)O; Ile(3ξ) = CCC(C)[C@H](N)C(=O)O

Tests used:
[1] = tested on: VRE 1004; assay type: cell-based, Enterococcus faecalis
Experimental: (§1) Bacteria were grown on Mueller Hinton broth (oxoid). All incubations were at 37° C. Dilutions were carried out using Mueller Hinton. […] This process was repeated up to well 11. […] This was repeated three times. […] Results are tabulated in the Examples.

[2] = tested on: VRE 1008; assay type: cell-based, Enterococcus faecalis
Experimental: as §1

[3] = tested on: VRE 1001; assay type: cell-based, Enterococcus faecalis
Experimental: as §1

[4] = tested on: VRE 1002; assay type: cell-based, Enterococcus faecalis
Experimental: as §1

[5] = tested on: MRSA ATCC 33591; details: ATCC 33591
Experimental: (§2) For MIC testing all peptides were dissolved in DMSO (according to the method of L. L. Ling, et al., Nature 2015, 517, 455-459). Bacteria were grown on Mueller Hinton broth (oxoid). All incubations were at 37° C. Dilutions were carried out using Mueller Hinton. 100 μl of autoclaved Mueller Hinton broth was added to wells 2-12 on a 96-well plate. 200 μl of the peptide was added to well one at a concentration of 512 μg/ml. 100 μl of peptide in well one was taken up and pipetted into well two. The mixture was then mixed via pipetting before 100 μl was taken up and pipetted into well three. This process was repeated up to well 11. […] This was repeated three times. The 96-well plates were then incubated for 24 hours. The MIC was determined to be the lowest concentration at which there was no growth visible.

[6] = tested on: MRSA 1003; assay type: cell-based, Staphylococcus aureus
Experimental: as §1

[7] = tested on: MRSA DR 42412 (sputum); assay: microbe, parasite or virus in culture; details: DR 42412 (sputum)
Experimental: as §2

[8] = tested on: VRE ATCC 29212; assay: microbe, parasite or virus in culture; details: ATCC 29212
Experimental: as §2

[9] = tested on: MRSA ATCC 700699; assay: microbe, parasite or virus in culture; details: ATCC 700699
Experimental: as §2

[10] = tested on: VRE ATCC 700802; assay: microbe, parasite or virus in culture; details: ATCC 700802
Experimental: as §2

[11] = tested on: MRSA DM21455 (eye); assay: microbe, parasite or virus in culture; details: DM21455 (eye)
Experimental: as §2

[12] = tested on: Staphylococcus aureus ATCC 29213; assay: microbe, parasite or virus in culture; details: ATCC 29213
Experimental: as §2

[13] = tested on: Staphylococcus saprophyticus ATCC BAA 750; assay type: cell-based; details: ATCC BAA 750
Experimental: as §1

[14] = tested on: Staphylococcus saprophyticus ATCC 49453; assay type: cell-based; details: ATCC 49453
Experimental: as §1

[15] = tested on: Bacillus Subtilis ATCC 6633; assay type: cell-based
Experimental: as §1

[16] = tested on: Bacillus Cereus ATCC 11788; assay type: cell-based
Experimental: as §1

[17] = tested on: SA4299; assay type: cell-based; details: Table 11
Experimental: as §1

[18] = tested on: Staphylococcus saprophyticus ATCC 49907; assay type: cell-based; details: ATCC 49907
Experimental: as §1

[19] = tested on: SE12228; assay type: cell-based
Experimental: as §1

[20] = tested on: Staphylococcus saprophyticus ATCC 15305; assay type: cell-based; details: ATCC 15305
Experimental: as §1

[21] = tested on: S. aureus ATCC 29213; assay: Mice-eye model of S. aureus keratitis; assay type: in vivo; details: for mean corneal thickness: 0.3% topical, baseline 93.8±2.9 μm
Excerpt: The in vivo efficacy of Compound 26 in the mice-eye model of S. aureus keratitis was examined. S. aureus is one of the major etiological agents for bacterial keratitis and the toxic secretions produced by this microorganism have been implicated in corneal melt, leading to significant morbidity and vision loss. […] A total of 8 doses were applied and the progression of the infection was monitored by slit lamp examination, anterior segment optical coherent tomography (AS-OCT) and microbiological enumeration of the bacterial bioburden. Mice cornea treated with PBS had severe clinical presentation indicated by chemosis, significant presence of hypopyon like materials and corneal infiltrates (FIG. 4).

**Q.** Which MIC [1] does the source give for `CC[C@@H](C)[C@@H](NC(=O)[C@@H](CCC(N)=O)NC(=O)[C@H](CO)NC(=O)[C@@H](NC(=O)[C@@H](Cc1ccccc1)NC)[C@@H](C)CC)C(=O)N[C@H](C(=O)N[C@@H](CO)C(=O)N[C@H]1C(=O)N[C@@H](CCCNC(=N)N)C(=O)N[C@@H](CC(C)C)C(=O)N[C@@H]([C@@H](C)CC)C(=O)O[C@H]1C)[C@@H](C)CC` [Compound 27, Arg9-Leu10-teixobactin] (H-[dNMeF]IS[dQ][dI]IS[dT]RLI; ester 8-C) here?
**A.** Its MIC is 0.25 µg/mL (≈ 0.194 µM).

**Q.** And the MIC [2]?
**A.** The MIC was 0.25 µg/mL (≈ 0.194 µM).

**Q.** And the MIC [3]?
**A.** Its MIC is 0.5 µg/mL (≈ 0.389 µM).

**Q.** And the MIC [4]?
**A.** Its MIC is 1 µg/mL (≈ 0.777 µM).

**Q.** And the “MIC (MRSA)” value [5]?
**A.** The value was 0.125 µg/mL (≈ 0.0972 µM).

**Q.** What about the MIC [6] of the same molecule?
**A.** The MIC was 0.25 µg/mL (≈ 0.194 µM).

**Q.** What about the MIC [7] of the same molecule?
**A.** The MIC was less than 0.0625 µg/mL.

**Q.** What about the MIC [8] of the same molecule?
**A.** Its MIC is 1 µg/mL (≈ 0.777 µM).

**Q.** And the MIC [9]?
**A.** Its MIC is 0.5 µg/mL (≈ 0.389 µM).

**Q.** What about the MIC [10] of the same molecule?
**A.** The MIC was 0.5 µg/mL (≈ 0.389 µM).

**Q.** And the MIC [11]?
**A.** Its MIC is 0.25 µg/mL (≈ 0.194 µM).

**Q.** And the MIC [12]?
**A.** Its MIC is 0.5 µg/mL (≈ 0.389 µM).

**Q.** And the MIC [13]?
**A.** Its MIC is less than 0.0625 µg/mL.

**Q.** And the MIC [14]?
**A.** The MIC was less than 0.0625 µg/mL.

**Q.** What about the MIC [15] of the same molecule?
**A.** The MIC was less than 0.0625 µg/mL.

**Q.** And the MIC [16]?
**A.** Its MIC is 0.25 µg/mL (≈ 0.194 µM).

**Q.** What about the MIC [17] of the same molecule?
**A.** The MIC was 0.25 µg/mL (≈ 0.194 µM).

**Q.** And the MIC [18]?
**A.** Its MIC is less than 0.0625 µg/mL.

**Q.** What about the MIC [19] of the same molecule?
**A.** The MIC was less than 0.0625 µg/mL.

**Q.** What about the MIC [20] of the same molecule?
**A.** The MIC was less than 0.0625 µg/mL.

**Q.** With `CCC(C)[C@@H]1NC(=O)[C@H](C)NC(=O)[C@H](NC(=O)[C@H](CO)NC(=O)[C@@H](NC(=O)[C@H](NC(=O)[C@@H](CCC(N)=O)NC(=O)[C@H](CCCNC(=N)N)NC(=O)[C@@H](NC(=O)[C@@H](Cc2ccccc2)NC)[C@@H](C)CC)[C@H](C)CC)[C@@H](C)CC)[C@H](C)OC(=O)[C@H]([C@@H](C)CC)NC1=O` (stereo partly shown) [Compound 32, Arg3-Ile10-teixobactin] (H-[dNMeF]IR[dQ][dI]IS[dT]A[Ile(3ξ)]I; ester 8-C) as the molecule, how does the MIC [1] read?
**A.** The MIC was 1 µg/mL (≈ 0.787 µM).

**Q.** And the MIC [2]?
**A.** Its MIC is 1 µg/mL (≈ 0.787 µM).

**Q.** What about the MIC [3] of the same molecule?
**A.** The MIC was 1 µg/mL (≈ 0.787 µM).

**Q.** And the MIC [4]?
**A.** Its MIC is 1 µg/mL (≈ 0.787 µM).

**Q.** What about the “MIC (MRSA)” value [5] of the same molecule?
**A.** Its value is 0.25 µg/mL (≈ 0.197 µM).

**Q.** What about the MIC [6] of the same molecule?
**A.** Its MIC is 0.125 µg/mL (≈ 0.0984 µM).

**Q.** And the MIC [7]?
**A.** The MIC was 0.125 µg/mL (≈ 0.0984 µM).

**Q.** What about the MIC [8] of the same molecule?
**A.** The MIC was 1 µg/mL (≈ 0.787 µM).

**Q.** What about the MIC [9] of the same molecule?
**A.** The MIC was 1 µg/mL (≈ 0.787 µM).

**Q.** What about the MIC [10] of the same molecule?
**A.** Its MIC is 1 µg/mL (≈ 0.787 µM).

**Q.** And the MIC [11]?
**A.** Its MIC is 0.25 µg/mL (≈ 0.197 µM).

**Q.** What about the MIC [12] of the same molecule?
**A.** Its MIC is 0.5 µg/mL (≈ 0.394 µM).

**Q.** What about the MIC [13] of the same molecule?
**A.** The MIC was less than 0.0625 µg/mL.

**Q.** And the MIC [14]?
**A.** The MIC was less than 0.0625 µg/mL.

**Q.** What about the MIC [15] of the same molecule?
**A.** Its MIC is less than 0.0625 µg/mL.

**Q.** And the MIC [16]?
**A.** The MIC was 0.125 µg/mL (≈ 0.0984 µM).

**Q.** What about the MIC [18] of the same molecule?
**A.** The MIC was less than 0.0625 µg/mL.

**Q.** What about the MIC [19] of the same molecule?
**A.** The MIC was less than 0.0625 µg/mL.

**Q.** What about the MIC [20] of the same molecule?
**A.** Its MIC is less than 0.0625 µg/mL.

**Q.** What does the source list for `CCC(C)[C@@H]1NC(=O)[C@H](C)NC(=O)[C@H](NC(=O)[C@H](CO)NC(=O)[C@@H](NC(=O)[C@H](NC(=O)[C@@H](CCCNC(=N)N)NC(=O)[C@H](CO)NC(=O)[C@@H](NC(=O)[C@@H](Cc2ccccc2)NC)[C@@H](C)CC)[C@H](C)CC)[C@@H](C)CC)[C@H](C)OC(=O)[C@H]([C@@H](C)CC)NC1=O` (stereo partly drawn) [Compound 33, D-Arg4-Ile10-teixobactin]?
**A.** MIC [1]: 0.5 µg/mL (≈ 0.407 µM); MIC [2]: 0.5 µg/mL (≈ 0.407 µM); MIC [3]: 0.5 µg/mL (≈ 0.407 µM); MIC [4]: 1 µg/mL (≈ 0.813 µM); MIC (MRSA) [5]: 0.125 µg/mL (≈ 0.102 µM); MIC [6]: <0.0625 µg/mL; MIC [7]: <0.0625 µg/mL; MIC [8]: 0.25 µg/mL (≈ 0.203 µM); MIC [9]: 0.25 µg/mL (≈ 0.203 µM); MIC [10]: 0.25 µg/mL (≈ 0.203 µM); MIC [11]: 0.03125 µg/mL (≈ 0.0254 µM); MIC [12]: 0.0625 µg/mL (≈ 0.0508 µM); MIC [13]: <0.0625 µg/mL; MIC [14]: <0.0625 µg/mL; MIC [15]: <0.0625 µg/mL; MIC [16]: <0.0625 µg/mL; MIC [18]: <0.0625 µg/mL; MIC [19]: <0.0625 µg/mL; MIC [20]: <0.0625 µg/mL

**Q.** With `COc1c(N2C[C@@H]3CCCN[C@@H]3C2)c(F)cc2c(=O)c(C(=O)O)cn(C3CC3)c12` [moxifloxacin, reference compound] as the molecule, how does the mean corneal thickness ([21]; 24 h post treatment) read?
**A.** The mean corneal thickness was 124.2±9.4 μm.

**Q.** What about the mean corneal thickness ([21]; 48 h post treatment) of the same molecule?
**A.** The mean corneal thickness was 140.3±10.3 μm.

**Q.** And the “mean log10 CFU/tissue” value ([21]; corneal tissues harvested after 8 dosages, ± standard error of the mean)?
**A.** Its value is 3.7±0.24 log10 CFU/tissue.
